Among the data in PubChem BioAssay (NCI) are TGI and GI50 values, retold here.

Among the test systems are MALME-3M melanoma; CCRF-CEM leukemia; BT-549 breast; COLO 205 colon; HCC-2998 colon; HCT-15 colon; SR leukemia; OVCAR-5 ovarian; NCI/ADR-RES ovarian; SW-620 colon.
What all share (assay): DTP human tumour cell line panel, 48 h

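48-hour exposure; five concentrations; linearly interpolated endpoints. GI50 marks 50% less growth. The concentration for full growth arrest is given as TGI.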

Turning to `O=C(C[n+]1ccc2ccccc2c1)c1ccc2ccc3ccccc3c2c1`, the TGI amounted to 22.2 µM in the test on MALME-3M melanoma; 4.78 µM in the test with CCRF-CEM leukemia; 24 µM in the test with BT-549 breast; 3.87 µM with COLO 205 colon; 3.37 µM in the test on HCC-2998 colon; 18.9 µM in the test on HCT-15 colon. For the same compound, the TGI was determined as 2.15 µM in the test on SR leukemia, 19.8 µM in the test with OVCAR-5 ovarian, 32.7 µM in the test on NCI/ADR-RES ovarian and 13.1 µM in the test on SW-620 colon.

Turning to `CC1CC[C@@]2(OC1)OC1C[C@H]3[C@@H]4CC=C5CC(OC6OC(CO)C(OC7OC(CO)C(O)C(OC8OCC(O)C(O)C8O)C7OC7OC(CO)C(O)C(O)C7O)C(O)C6O)CCC5(C)[C@H]4CCC3(C)C1[C@@H]2C` (stereo not given in full), the TGI was more than 25 µM in the test on MALME-3M melanoma; 12.1 µM in the test on CCRF-CEM leukemia; 9.24 µM with BT-549 breast; 8.16 µM in the test on COLO 205 colon; 8.63 µM in the test with HCC-2998 colon; more than 25 µM with HCT-15 colon. The TGI in the test with SR leukemia is 17.7 µM; in the test with OVCAR-5 ovarian it was more than 25 µM; in the test with NCI/ADR-RES ovarian, 12.9 µM; in the test with SW-620 colon, 8.3 µM.

In the case of `O=C(/C=C/c1ccccc1)NNC(=O)c1c(Cl)c(Cl)c(Cl)c(Cl)c1-c1nc2ccccc2[nH]1`, the TGI in the test with MALME-3M melanoma is 59.1 µM; in the test with CCRF-CEM leukemia, 75.8 µM; in the test with BT-549 breast, 76.1 µM; with COLO 205 colon, 33.2 µM; in the test with HCC-2998 colon, 65.9 µM; in the test with HCT-15 colon, 90.7 µM. Further, the TGI in the test with SR leukemia was more than 100 µM; in the test with OVCAR-5 ovarian, more than 100 µM; in the test on NCI/ADR-RES ovarian it was 64.9 µM; in the test with SW-620 colon, more than 100 µM.

Regarding `CC(=O)C1=C(C)N(c2ccc(C)cc2)C2(O)C=CC(=O)C3C(=O)N(c4ccccc4)C(=O)C132` (stereo not given), the TGI in the test with MALME-3M melanoma is 46.6 µM; in the test on CCRF-CEM leukemia, more than 100 µM; in the test on BT-549 breast it was 39.8 µM; in the test with COLO 205 colon, more than 100 µM; in the test with HCC-2998 colon, 52.3 µM; in the test on HCT-15 colon it was more than 100 µM. Further, the TGI in the test with SR leukemia was 23.7 µM; in the test with OVCAR-5 ovarian, more than 100 µM; with NCI/ADR-RES ovarian it was more than 100 µM; in the test with SW-620 colon it was 22.7 µM.

As to `C[C@H](CCC(=O)O)[C@H]1CC[C@@]2(C)[C@@H]3C(=O)C[C@H]4C(C)(C)[C@@H](O)CC[C@]4(C)[C@H]3C(=O)C[C@]12C`, the TGI with MALME-3M melanoma, in the test on CCRF-CEM leukemia, in the test with BT-549 breast, with COLO 205 colon, in the test with HCC-2998 colon and with HCT-15 colon was more than 100 µM throughout. Also, the TGI in the test on SR leukemia, with OVCAR-5 ovarian, with NCI/ADR-RES ovarian and with SW-620 colon was more than 100 µM in each case.

Take `Cc1ccccc1C(=O)N/N=C/c1ccc(Sc2nccn2C)c([N+](=O)[O-])c1`: the TGI in the test with MALME-3M melanoma, with CCRF-CEM leukemia, in the test with BT-549 breast, with COLO 205 colon, in the test with HCC-2998 colon and in the test on HCT-15 colon was more than 100 µM in each case. For the same compound, the TGI with SR leukemia, with OVCAR-5 ovarian, in the test on NCI/ADR-RES ovarian and in the test on SW-620 colon was more than 100 µM in each case.

As to `COc1ccc(C(=O)/C=C/c2cccc([N+](=O)[O-])c2)c(OC)c1`, the GI50 in the test with MALME-3M melanoma was 3.56 µM; in the test on CCRF-CEM leukemia, 1.39 µM; in the test on BT-549 breast, 1.12 µM; with COLO 205 colon, 6.85 µM; in the test on HCC-2998 colon, 2.27 µM; with HCT-15 colon, 0.916 µM. Moreover, the GI50 in the test on SR leukemia was 0.678 µM; in the test with OVCAR-5 ovarian, 1.56 µM; in the test with NCI/ADR-RES ovarian it was 1.53 µM; with SW-620 colon it was 1.2 µM. Also, the TGI in the test with MALME-3M melanoma is more than 50 µM; in the test on CCRF-CEM leukemia it was 4.79 µM; with BT-549 breast, 2.99 µM; in the test with COLO 205 colon it was more than 50 µM; with HCC-2998 colon, more than 50 µM; with HCT-15 colon, 2.61 µM. In addition, the total growth inhibition concentration (TGI) is 4.02 µM in the test on SR leukemia, more than 50 µM in the test on OVCAR-5 ovarian, more than 50 µM in the test on NCI/ADR-RES ovarian and 2.54 µM with SW-620 colon.

Turning to `CC1=CC(=O)c2ccccc2C1=O`, the TGI with MALME-3M melanoma was 10.9 µM; in the test with CCRF-CEM leukemia it was 5.76 µM; with BT-549 breast, 25.6 µM; with COLO 205 colon it was 31.8 µM; with HCC-2998 colon, 30.7 µM; in the test with HCT-15 colon, 14.1 µM. The TGI is more than 29 µM with SR leukemia, 26.7 µM in the test with OVCAR-5 ovarian, 30.2 µM with NCI/ADR-RES ovarian and 4.82 µM in the test with SW-620 colon.

`COc1ccc(C(=O)c2sc(Nc3ccc(Cl)cc3)nc2N)cc1`: the TGI was more than 59.4 µM in the test with MALME-3M melanoma; 58.1 µM in the test with CCRF-CEM leukemia; more than 100 µM with BT-549 breast; more than 100 µM with COLO 205 colon; 44.7 µM in the test on HCC-2998 colon; more than 100 µM in the test on HCT-15 colon. For the same compound, the concentration for total growth inhibition (TGI) in the test with SR leukemia is more than 45.2 µM; in the test on OVCAR-5 ovarian, more than 100 µM; in the test on NCI/ADR-RES ovarian, more than 69.5 µM; with SW-620 colon it was more than 100 µM.
